Measured values reported in patent US20260297679A1, “ASSAYS FOR MONITORING INHIBITION OF RNA HELICASE DHX9” (ACCENT THERAPEUTICS, INC., priority 2023, published 2026).

Tests used:
[1] = Intra-tumoral pharmacokinetics bioanalytical assay; format: in vivo, female BALB/c nude mice; conditions: BID oral, 21 days; four parameter non-linear regression; FIG. 4C
Description: Intra-tumoral Pharmacokinetics Bioanalytical Assay: Tumors were collected at 1 h and 12 h post the last dose and cut into 3 pieces. One piece of the tumor was weighted and snap frozen for drug exposure analysis. On the assay day, 3 volumes of H2O were added to the tumor tissue (3 mL to each gram of tissue), and homogenate at 4 degrees Celsius. The homogenate (30 μL) was mixed with 15 μL blank solution, then extracted and protein precipitation with 200 μL of acetonitrile containing IS (internal standard, dexamethasone). After vortexed for 30 s, the samples were centrifuged at 4 degrees Celsius, 3900 rpm for 15 minutes. The supernatant was diluted 3 times with water and 2 μL of diluted supernatant was injected into the LC/MS/MS system for quantitative analysis (AB API 5500). The Q1 to Q3 mass transition (m/z, Da) were 393.11 to 373.10 for dexamethasone and 421.98 to 202.30 for test compound. […]
The concentration in the homogenate was quantified using standards prepared in control tumor tissues with concentrations range 0.5, 1, 2, 5, 10, 50, 100, 500, 1000 ng/mL. The determined concentration in the tumor homogenate was then back calculated to that in tumor tissue by multiplying with a dilution factor of 4.

human PBMCs = assay: proliferation of human PBMCs (Cell-Titer Glo 2.0); format: cell-based; conditions: Compound 1 0.01 μM to 10 μM, 10 days; FIG. 8B
Description: Next, the proliferation of PMBCs was examined following treatment with DHX9 inhibitor using the following assay.
Human PBMCs were thawed from a frozen cryotube in a 37° C. water bath and transferred to a flask with medium X-Vivo 15 supplemented with 5% Fetal Bovine Serum (FBS), 1% PenStrep, and 1% Glutamax. Flasks were incubated at 37 C for 30 minutes. PBMCs were harvested from flask and counted. PBMCs were diluted in medium and added to 96 well plates at 100,000 PBMCs per well. A stimulus mixture containing IL-15 at 1 ng/well, IL-21 at 5 ng/well, and CD40L at 5 ng/well was added to each well. Test compounds were prepared in DMSO stock solution and serially diluted. Compound (0.1% final DMSO concentration) was added to each well. DMSO was used as a negative control (high control, HC) and staurosporine was used a positive control (low control, LC). Plates were incubated at 37 C for 0, 2, 4, 6, 8, 10 days. Every other day, medium was replenished with stimulus and diluted compounds.
At each CTG time point, plate was removed from incubator and Cell-Titer Glo 2.0 reagent was added to each well according to manufacturer's (Promega) protocol and detected on an Envision. The inhibition activity was calculated following the formula below:
% Inhibition=100×(ReadoutHC−ReadoutSample)/(ReadoutHC−ReadoutLC)
PBMCs were exposed to Compound 1 at concentrations ranging from 0.01 μM to 10 μM for 10 days. […]

LS411N tumors = assay: In vivo efficacy study, tumor volume, LS411N xenograft; set-up: species or system human xenograft in female BALB/c nude mice; conditions: BID oral, 21 days; FIG. 4B
Description: In vivo Efficacy Study: Experiments were performed in female BALB/c nude mice (GenPharmatech Co.). Animals were allowed to acclimate for 7 days before the study. The general health of the animals were evaluated by a veterinarian, and complete health checks were performed prior to the study. General procedures for animal care and housing were in accordance with the standard, Commission on Life Sciences, National Research Council, Standard Operating Procedures (SOPs) of Pharmaron, Inc. The mice were kept in laminar flow rooms at constant temperature and humidity with 3-5 mice in each cage. Animals were housed in polycarbonate cage which is the size of 300×180×150 mm^3 and in an environmentally monitored, well-ventilated room maintained at a temperature of (23±3° C.) and a relative humidity of 40% 70%. Fluorescent lighting provided illumination approximately 12 hours per day. […]
The LS411N (ATCC; CRL-2159) tumor cell lines were maintained in vitro as monolayer in RPMI 1640 medium supplemented with 10% heat inactivated FBS, at 37° C. in an atmosphere of 5% CO2 in air. The tumor cells were sub-cultured, not exceeding 4-5 passages, and cells growing in an exponential growth phase were harvested and counted for tumor inoculation. […]
The measurement of tumor size was conducted with a caliper and recorded twice per week. […]

frozen PBMCs = assay: circBRIP1 level in frozen human PBMCs; format: cell-based; conditions: 10 μM, 24 hours, frozen PBMCs from three donors, vs vehicle; FIG. 8A
Description: As proof of concept, circBRIP1 levels were examined in peripheral blood mononuclear cells (PMBCs) using frozen PBMCs from donors after treatment with a DHX9 inhibitor.
Frozen PBMCs were thawed in a 37° C. water bath, washed, and reconstituted in media. The same number of cells were added to each well of 12-well plates and let rest for 2 hours before being subjected to testing conditions. Compound 1 was dissolved in DMSO at 10 mM as a stock solution, and diluted to a desired concentration. Frozen PBMCs from three donors or LS411N cells (positive control) were treated with 10 μM of Compound 1 or control vehicle for 24 hours. The circBRIP1 level was determined using methods essentially as described above.

correlation of tumor drug exposure to circBRIP1 induction [1]: correlate to circBRIP1 induction
SMILES: Cc1cccnc1-c1csc(C(=O)Nc2cc(Cl)cc(NS(C)(=O)=O)c2)c1 [Compound 1, N-(3-chloro-5-methanesulfonamidophenyl)-4-(3-methylpyridin-2-yl)thiophene-2-carboxamide]
proliferation of PBMCs (human PBMCs): did not inhibit proliferation of PBMCs
correlation of tumor volume to circBRIP1 induction (LS411N tumors): correlate to circBRIP1 induction
circBRIP1 level in PBMCs (frozen PBMCs): significantly elevated
